1 compound from patent publication US20140051729A1, “COMPOSITIONS AND METHODS FOR TREATING DEGENERATIVE MUSCLE CONDITIONS” (University of Washington, priority 2011, published 2014) can be followed below.

The structures appear in SMILES notation.

In this assay the test system is mdx mice. Description: EDL muscle myography in mdx mice. The conditions noted are these: THI IP twice-daily two weeks. It counts as in vivo, mouse. As to the method:
The effect of THI administration on muscle function and recovery in mdx mice was analyzed. The mice were injected intraperitoneally with THI in PBS or vehicle alone (PBS) twice-daily for two weeks. Total amount of THI delivered per day was 75 ug. Extensor digitorum longus (EDL) muscles were excised from the mice and equilibrated in ringer's solution with 95% O2/5% CO2 for a minimum of 15 minutes prior to stimulation. Myography was conducted using a DMT 820S myograph and data was recorded using PowerLab 4/30 acquisition system with LabChart Pro software v7.3.1 (both from ADI instruments, Colorado Springs, Colo.). Stimulations were conducted with a Grass Instrument S88X system (Grass Technologies, West Warwick, R.I.). Muscles were stimulated to establish optimal fiber length (Lf) and voltage at which maximum tetanic force was measured at 120 Hz within a 450 ms duration.
Specific force was calculated as previously described in Gregorevic P. et al. (Gregorevic P. et al., Muscle Nerve. 2004 September; 30(3):295-304, PMID#15318340) by normalizing to whole muscle cross-sectional area (CSA). CSA is the quotient of […] muscle mass over the optimal muscle length (Lo) which is defined as the product of muscle fiber length (Lf) with the fiber length ratio (0.44 for EDL) and mammalian muscle density (1.06).
Muscle recovery was measured after muscle was fatigued with stimulation over 6 minutes. […] Recovery was determined by examining muscle force at 5, 10, and 15 minutes after stimulation. […] Therefore, the administration of THI improved muscle recovery and function in dystrophic mice.
The effect of THI-oxime administration on muscle function and recovery in mdx mice was analyzed. The mice were injected intraperitoneally with THI-oxime (n=3) or PBS vehicle alone (n=4) twice-daily for two weeks and then analyzed between 1-4 days following the final day of injection. Total amount of THI-oxime delivered per day was 75 ug. Prior to euthanasia, the animals were anesthetized with 0.5 mg/g weight avertin diluted in PBS. EDL muscles were excised from the mice and equilibrated in ringer's solution (120 mM NaCl, 4.7 mM KCl, 3.15 mM MgCl2, 1.3 mM NaH2PO4, 25 mM NaHCO3, 11 mM Glucose, 1.25 mM CaCl2, pH 7.2) with 95% O2/5% CO2 for a minimum of 15 minutes prior to stimulation. All functional experiments were carried out with buffer solutions at 25° C. under constant oxygenation. Myography was conducted using a DMT 820S myograph and data was recorded using PowerLab 4/30 acquisition system with LabChart Pro software v7.3.1 (both from ADI instruments, Colorado Springs, Colo.). […] Muscles were stimulated to establish optimal fiber length (Lf) and voltage at which maximum tetanic force was measured at 120 Hz within a 450 ms duration. […]

With `CC(=O)c1ncc([C@@H](O)[C@H](O)[C@H](O)CO)[nH]1` [THI, 1-[5-[(1R,2S,3R)-1,2,3,4-tetrahydroxybutyl]-1H-imidazol-2-yl]-ethanone], the “maximum specific force of EDL muscle” value (75 ug per day, vehicle 95.45) came to 134.29 KN/m^2. For the setting “vs vehicle”, the “muscle fatigue with stimulation over 6 minutes” value was “fatigued at similar rates”; the “muscle recovery (force at 5, 10 and 15 minutes after stimulation)” value was “improved recovery”.
